Data on 3 compounds can be found in patent US20150037253A1, “METAL COMPLEXES AS IMAGING AGENTS” (The University of Melbourne, priority 2011, published 2015).

SMILES strings stand for the structures.

Data set [1] is described as follows: Cyclic voltammetry, Cu(II)/Cu(I) reduction potential. As to conditions: vs. SCE, in DMF, glassy carbon electrode. Format: physicochemical. The procedure:
Cyclic voltammograms were recorded using an AUTOLAB PGSTAT100 equipped with GPES V4.9 software. Measurements of the complexes were carried out at approximately 1×10^−3 M in dimethylformamide with tetrabutylammonium tetrafluoroborate (1×10^−1 M) as electrolyte using a glassy carbon disk (d, 3 mm) working electrode, a Pt wire counter/auxiliary electrode, and a Ag/Ag^+ pseudo reference electrode (silver wire in H2O (KCl (0.1 M)) AgNO3 (0.01 M)). Ferrocene was used as an internal reference (Em(Fc/Fc^+)=0.54 V vs. SCE), where Em refers to the midpoint between a reversible reductive (Epc) and oxidative (Epa) couple, given by Em=(Epc+Epa)/2. Irreversible systems are only given reductive (Epc) and oxidative (Epa) values, respectively.

The test system of data set [2] is Aβ plaques. The data set can be described thus: Fluorescence staining of human AD brain tissue sections, co-localisation with 1E8 immunostaining. The class given is binding. The following applies: post-mortem AD human brain, 7 μm serial sections, BSA pre-treated. An excerpt: Fluorescence Staining of Human AD Brain. Tissues(^10) Paraffin preserved brain tissue blocks were provided by the Victoria Brain Bank Network. Brain tissue was collected at autopsy. The National Neural Tissue Resource Centre performed Sourcing and preparation of human brain tissue. AD pathologic diagnosis was made according to standard National Institute on Aging-Reagan Institute criteria. Determination of age-matched Human control (HC) cases was subject to the above criteria. The AD and HC brain tissues sections ([…]) were first de-paraffined (xylene, 3×2 min) followed by rehydration (soaking in a series of 100%, 90%, 70% and 0% v/v ethanol/di water). The hydrated tissue sections were washed in phosphate buffer saline (PBS, 5 min). Auto-fluorescence of the tissue was quenched using potassium permanganate (0.25% in PBS, 20 min) and washing with PBS (2×2 min) to remove the excess. […] Finally, the sections were washed with PBS (3×2 min), di water and mounted with non-fluorescent mounting media (Dako), Fluorescence images were visualised using a Leica (Bannockburn, Ill.) DM1RB microscope. […] The tissue was subsequently examined by fluorescent microscopy (epi-fluorescence, λex=420 nm, λex=470 nm) and compared to a sequential brain tissue cross section immunostained with an Aβ antibody (1 E8). […]

Data set [3] is described as follows: Partition coefficients (Log D) for 64Cu complexes. The following applies: 64Cu complex of the listed ligand. The class given is physicochemical.

Regarding `CN=C([S-])N/N=C(C)/C(C)=N/NC([S-])=NC.[Cu+2]` [CuII (atsm)], the “reduction potential Em (Cu^II/Cu^I couple)” value in data set [1] is given as −0.59 V.
As to `CC(=N\NC(=S)NCCN(C)C)/C(C)=N/Nc1ccc(/C=C/c2ccc(N(C)C)cc2)cn1` [Example H2L3, Diacetyl-2-((E)-2-hydrazino-pyridinyl-4-(4′-N,N-dimethylaminostilbene))-(4-dimethylaminoethyl-3-thiosemicarbazone)], the “binding to Aβ plaques (co-localisation of epi-fluorescence with 1E8 antibody immunostaining)” value in data set [2] was “binding selectively to Aβ plaques”.
Take `CNC(S)=NN=C(C)C(C)=NN=C(S)NC` [atsmH2a]: the “Log D of complex” value in data set [3] was found to be 1.48.
